Legend:
[1] = test system: production of TNF-α by PBMC in response to stimulation by LPS; experiment: TNF-α assay; type: cell-based, human; conditions: LPS 1 μg/ml, 72 hours, sandwich ELISA
Protocol: Peripheral blood mononuclear cells (herein referred as PBMC), in response to stimulation by lipopolysaccharide (hereinafter LPS), a gram-negative bacterial endotoxin, produce various […], in particular human TNF-α. Inhibition of the activation of PBMC can therefore be measured by the level of suppression of the production of TNF-α by PBMC in response to stimulation by LPS.
Such inhibition measurement was performed as follows: PBMC were isolated from heparinized peripheral blood by density gradient centrifugation over Lymphoprep (commercially available from Nycomed, Norway). LPS was then added to the PMBC suspension in complete medium (10^6 cells/ml) at a final concentration of 1 μg/ml. The pteridine derivative to be tested was added at different concentrations (0.1 μM, 1 μM and 10 μM) and the cells were incubated at 37° C. for 72 hours in 5% CO2. The supernatants were collected, then TNF-α concentrations were measured with respectively an anti-TNF-α antibody in a sandwich ELISA (Duo Set ELISA human TNFα, commercially available from R&D Systems, United Kingdom). The calorimetric reading of the ELISA was measured by a Multiskan RC plate reader (commercially available from ThermoLabsystems, Finland) at 450 nm (reference wavelength: 690 nm). Data analysis was performed with Ascent software 2.6. (also from ThermoLabsystems, Finland): a standard curve (recombinant human TNFα) was drawn and the amount (pg/ml) of each sample on the standard curve was determined.
The % suppression of human TNFα production by the pteridine derivatives of the invention (drugs) was calculated using the formula: [formula]

[2] = test system: mixed lymphocyte reaction (PBMC with allogeneic PBMC or Eppstein-Barr Virus-transformed human B cells as stimulator cells); experiment: Mixed lymphocyte reaction (MLR) assay; type: cell-based; conditions: lowest concentration giving 50% suppression of the MLR; [3H]-thymidine
Protocol: Pteridine derivatives were first dissolved (10 mM) in dimethylsulfoxide (hereinafter referred as DMSO) and further diluted in culture medium before use for the following in vitro experiments. The commercially available culture medium consisted of RPMI-1640+10% foetal calf serum (FCS). Some pteridine derivatives described in the previous examples (as indicated in table 1) were tested in the following mixed lymphocyte reaction (MLR) assay.
Peripheral blood mononuclear cells (hereinafter referred as PBMC) were isolated from heparinized peripheral blood by density gradient centrifugation over Lymphoprep (Nycomed, Maorstua, Norway). Allogeneic PBMC or Eppstein-Barr Virus-transformed human B cells [commercially available under the trade name RPM11788 (ATCC name CCL156)] which strongly express B7-1 and B7-2 antigens were used as stimulator cells after irradiation with 30 Gy. MLR was performed in triplicate wells. After 5 days incubation at 37° C., 1 μCi [^3H]-thymidine was added to each cup. After a further 16 hours incubation, cells were harvested and counted in a […]. Inhibition of proliferation by a compound (drug) described in some of the previous examples was counted using the formula: [formula] wherein cpm is the thymidine count per minute. The MLR assay is regarded by those skilled in the art as an in vitro analogue of the transplant rejection since it is based on the recognition of allogeneic major histocompatibility antigens on the stimulator leukocytes, by responding lymphocytes.

Compound | IC50 [1] | IC50 [2]
2-amino-4-(1-(2-diethylaminoethyl)-piperazino)-6-(3,4-dimethoxyphenyl)pteridine [Example 127] | 2600 nM | 9100 nM
2-amino-6-(3,4-dimethoxyphenyl)-4-((tetrahydrofurfuryl)-piperazin-1-yl)pteridine [Example 169] | 300 nM | 800 nM
CCC(=O)N1CCN(c2nc(N)nc3ncc(-c4ccc(OC)c(OC)c4)nc23)CC1 [Example 9, 2-amino-4-[(N-propionyl)-piperazin-1-yl]-6-(3,4-dimethoxyphenyl)pteridine] | 140 nM | 500 nM
COc1ccc(-c2cnc3nc(N)nc(N4CCN(C(=O)c5ccccc5)CC4)c3n2)cc1OC [Example 11, 2-amino-4-(N-benzoylpiperazin-1-yl)-6-(3,4-dimethoxyphenyl)pteridine] | 400 nM | 400 nM
COc1ccc(-c2cnc3nc(N)nc(N4CCN(C(=O)c5cccs5)CC4)c3n2)cc1OC [Example 13, 2-amino-4-[(N-2-thiophenecarbonyl)-piperazin-1-yl]-6-(3,4-dimethoxy-phenyl)pteridine] | 80 nM | 100 nM
CCN(CC)C(=O)N1CCN(c2nc(N)nc3ncc(-c4ccc(OC)c(OC)c4)nc23)CC1 [Example 14, 2-amino-4-[(N-diethylcarbamoyl)-piperazin-1-yl]-6-(3,4-dimethoxy-phenyl)pteridine] | 60 nM | 200 nM
COc1ccc(-c2cnc3nc(N)nc(N4CCN(C(=O)c5ccc(C#N)cc5)CC4)c3n2)cc1OC [Example 16, 2-amino-4-[N-(4-cyanobenzoyl)-piperazin-1-yl]-6-(3,4-dimethoxyphenyl)pteridine] | 550 nM | 800 nM
CCCCc1ccc(C(=O)N2CCN(c3nc(N)nc4ncc(-c5ccc(OC)c(OC)c5)nc34)CC2)cc1 [Example 18, 2-amino-4-[(N-4-butylbenzoyl)-piperazin-1-yl]-6-(3,4-dimethoxyphenyl)pteridine] | 90 nM | 300 nM
COc1ccc(-c2cnc3nc(N)nc(N4CCN(C(=O)c5ccncc5)CC4)c3n2)cc1OC [Example 19, 2-amino-4-[(N-isonicotinoyl)-piperazin-1-yl]-6-(3,4-dimethoxyphenyl)pteridine] | 60 nM | 2400 nM
COc1cccc(C(=O)N2CCN(c3nc(N)nc4ncc(-c5ccc(OC)c(OC)c5)nc34)CC2)c1 [Example 26, 2-amino-4-[N-(3-methoxybenzoyl)piperazin-1-yl]-6-(3,4-dimethoxy-phenyl)pteridine] | 500 nM | 500 nM
COc1ccc(-c2cnc3nc(N)nc(N4CCN(C(=O)c5ccco5)CC4)c3n2)cc1OC [Example 27, 2-amino-4-[N-(2-furoyl)-piperazin-1-yl]-6-(3,4-dimethoxyphenyl)pteridine] | 500 nM | 80 nM
COc1ccc(-c2cnc3nc(N)nc(N4CCN(C(=O)COCc5ccccc5)CC4)c3n2)cc1OC [Example 28, 2-amino-4-[(N-benzyloxyacetyl)-piperazin-1-yl]-6-(3,4-dimethoxyphenyl)pteridine] | 500 nM | 30 nM
COc1ccc(-c2cnc3nc(N)nc(N4CCN(C(=O)COc5ccc(Cl)cc5)CC4)c3n2)cc1OC [Example 29] | 77 nM | 0.5 nM
COc1ccc(-c2cnc3nc(N)nc(N4CCN(C(=O)C5CCCCC5)CC4)c3n2)cc1OC [Example 30, 2-amino-4-[(N-cyclohexylcarbonyl)-piperazin-1-yl]-6-(3,4-dimethoxy-phenyl)pteridine] | 300 nM | 100 nM
COc1ccc(-c2cnc3nc(N)nc(N4CCN(S(=O)(=O)c5ccccc5)CC4)c3n2)cc1OC [Example 31, 2-amino-4-[(N-phenylsulfonyl)-piperazin-1-yl]-6-(3,4-dimethoxy-phenyl)pteridine] | 500 nM | 3000 nM
COc1ccc(-c2cnc3nc(N)nc(N4CCN(C(=O)c5ccc(F)cc5)CC4)c3n2)cc1OC [Example 32, 2-amino-4-[(N-p-fluorobenzoyl)-piperazin-1-yl]-6-(3,4-dimethoxyphenyl)pteridine] | 400 nM | 400 nM
COc1ccc(-c2cnc3nc(N)nc(N4CCN(C(=O)N5CCCC5)CC4)c3n2)cc1OC [Example 38, 2-amino-4-[(N-1-pyrrolidinylcarbonyl)-piperazin-1-yl]-6-(3,4-dimethoxy-phenyl)pteridine] | 60 nM | 300 nM
COc1ccc(-c2cnc3nc(N)nc(N4CCN(C(=O)N(c5ccccc5)c5ccccc5)CC4)c3n2)cc1OC [Example 39, 2-amino-4-[(N-diphenylcarbamoyl)-piperazin-1-yl]-6-(3,4-dimethoxy-phenyl)pteridine] | 800 nM | 700 nM
COc1ccc(-c2cnc3nc(N)nc(N4CCN(C(=O)c5ccccc5OC)CC4)c3n2)cc1OC [Example 42, 2-amino-4-[N-(2-methoxybenzoyl)-piperazin-1-yl]-6-(3,4-dimethoxy-phenyl)pteridine] | 100 nM | 400 nM
COc1ccc(-c2cnc3nc(N)nc(N4CCN(S(=O)(=O)Cc5ccccc5)CC4)c3n2)cc1OC [Example 43, 2-amino-4-[(N-benzylsulfonyl)-piperazin-1-yl]-6-(3,4-dimethoxyphenyl)pteridine] | 700 nM | 200 nM
COc1ccc(-c2cnc3nc(N)nc(N4CCN(C(=O)c5ccc(Cl)c(Cl)c5)CC4)c3n2)cc1OC [Example 44, 2-amino-4-[N-(3,4-dichlorobenzoyl)-piperazin-1-yl]-6-(3,4-dimethoxy-phenyl)pteridine] | 700 nM | 200 nM
COc1ccc(-c2cnc3nc(N)nc(N4CCN(C(=O)Cc5ccc(Cl)cc5)CC4)c3n2)cc1OC [Example 45, 2-amino-4-[N-(4-chlorophenylacetyl)-piperazin-1-yl]-6-(3,4-dimethoxy-phenyl)pteridine] | 400 nM | 90 nM
COc1ccc(-c2cnc3nc(N)nc(N4CCN(C(=O)OCc5ccccc5)CC4)c3n2)cc1OC [Example 48, 2-amino-4-[(N-benzyloxycarbonyl)-piperazin-1-yl]-6-(3,4-dimethoxy-phenyl)pteridine] | 80 nM | 300 nM
COc1ccc(-c2cnc3nc(N)nc(N4CCN(C(=S)Oc5ccccc5)CC4)c3n2)cc1OC [Example 51, 2-amino-4-[(N-phenoxythiocarbonyl)-piperazin-1-yl]-6-(3,4-dimethoxy-phenyl)pteridine] | 40 nM | 300 nM
COc1ccc(-c2cnc3nc(N)nc(N4CCN(C(=O)[C@@H](N)Cc5ccccc5)CC4)c3n2)cc1OC [Example 60, 2-amino-4-[N-(2-(S)-amino-3-phenylpropionyl)-piperazin-1-yl]-6-(3,4-dimethoxy-phenyl)pteridine] | 2500 nM | 4100 nM
COc1ccc(-c2cnc3nc(N)nc(N4CCN(C/C=C/c5ccccc5)CC4)c3n2)cc1OC [Example 66, 2-amino-4-(N-trans-cinnamylpiperazin-1-yl)-6-(3,4-dimethoxy-phenyl)pteridine] | 300 nM | 800 nM
COc1ccc(-c2cnc3nc(NCCc4ccccc4)nc(N)c3n2)cc1OC [Example 79, 2-phenylethylamino-4-amino-6-(3,4-dimethoxyphenyl)pteridine] | 9800 nM | 4100 nM
COc1ccc(-c2cnc3nc(N)nc(N4CCCN(C(=O)COc5ccccc5)CC4)c3n2)cc1OC [Example 89] | 1200 nM | 87 nM
COc1ccc(-c2cnc3nc(N)nc(N4CCN(C(=O)Oc5ccc(C)cc5)CC4)c3n2)cc1OC [Example 90, 2-amino-4-[(N-4-methyl-phenoxy-carbonyl)-piperazin-1-yl]-6-(3,4-dimethoxyphenyl)pteridine] | 40 nM | 58 nM
COc1ccc(-c2cnc3nc(N)nc(N4CCN(C(=O)Oc5ccc(Cl)cc5)CC4)c3n2)cc1OC [Example 94] | 90 nM | 100 nM
